The results in this text go back to patent publication US20230053688A1, “METHODS TO ALTER LATENCY IN EBV+ MALIGNANCIES” (Cornell University, priority 2020, published 2023).

Counter-ions that a name gives are not always drawn. Like-named read-outs stand apart in the source and are kept apart here.

This assay relates to LMP1 expression in Kem I cells. Briefly: microbe, parasite or virus in culture. Format: cell-based, EBV. The following applies: for fold induction at 2.5 µM: human gammaherpesvirus 4, 48 h.
Where [1] appears, read: Kem I cells, 2.5 uM, 48 hours, average of replicates 1 and 2.
Setting [2] is: Kem I cells, 2.5 uM, 48 hours, fold change in LMP1 transcript vs vehicle.
Where [3] appears, read: read-out: Average LMP1 Fold Increase, Kem I cells, 2.5 uM, 48 hours, average of replicates 1 and 2.
The mark [4] stands for this setting: read-out: Replicate 1-LMP1 Fold Increase, Kem I cells, 2.5 uM, 48 hours, fold change in LMP1 transcript vs vehicle.
Where [5] appears, read: read-out: Replicate 2-LMP1 Fold Increase, Kem I cells, 2.5 uM, 48 hours, fold change in LMP1 transcript vs vehicle.

Turning to `CC(C)N(CC[C@H](c1ccccc1)c1cc(CO)ccc1O)C(C)C`, under setting [1], the “Average LMP1 Fold Increase” value was 0.36. For the same compound, under setting [2], the “Replicate 1-LMP1 Fold Increase” value was 0.49 and the “Replicate 2-LMP1 Fold Increase” value stood at 0.23.

On to `O=[N+]([O-])C=Cc1ccc2c(c1)OCO2`, for which, under setting [1], the “Average LMP1 Fold Increase” value came to 1.11. For the same compound, under setting [2], the “Replicate 1-LMP1 Fold Increase” value was found to be 0.54 and the “Replicate 2-LMP1 Fold Increase” value turned out to be 1.68.

In the case of `O=C(O)C(Cc1ccccc1[N+](=O)[O-])=NNc1nc(-c2ccc(Cl)c(Cl)c2)cs1` (mixture of isomers) [4EGI-1], under setting [1], the “Average LMP1 Fold Increase” value is 0.64. In addition, under setting [2], the “Replicate 1-LMP1 Fold Increase” value was determined as 0.41 and the “Replicate 2-LMP1 Fold Increase” value was found to be 0.86.

On to `Fc1cc(F)c2c(c1)[C@H]1C=CC[C@H]1C(c1cccnc1)N2` (mixture of isomers) [Golgicide A], for which the “Average LMP1 Fold Increase” value under setting [1] was 0.27. Under setting [2], the “Replicate 1-LMP1 Fold Increase” value came out at 0.34 and the “Replicate 2-LMP1 Fold Increase” value turned out to be 0.19.

Turning to `C[C@H]1COC2(CCN(c3nc(=O)c4cc(C(F)(F)F)cc([N+](=O)[O-])c4s3)CC2)O1` (racemic) [BTZ043 Racemate], the “Average LMP1 Fold Increase” value under setting [1] is reported as 0.64. In addition, under setting [2], the “Replicate 1-LMP1 Fold Increase” value came out at 0.62 and the “Replicate 2-LMP1 Fold Increase” value is reported as 0.67.

Take `Cl.N[C@@H]1C[C@H]1c1ccccc1` (racemic) [Tranylcypromine (2-PCPA) HCl]: the “Average LMP1 Fold Increase” value is 0.33 fold, the “Replicate 1-LMP1 Fold Increase” value turned out to be 0.22 fold and the “Replicate 2-LMP1 Fold Increase” value amounted to 0.45 fold.

Turning to `COc1cc2c(cc1O)CC[C@@H]1[C@@H]2CC[C@]2(C)[C@@H](O)CC[C@@H]12` [2-Methoxyestradiol (2-MeOE2)], under setting [1], the “Average LMP1 Fold Increase” value came out at 1.00. Moreover, under setting [2], the “Replicate 1-LMP1 Fold Increase” value amounted to 0.65 and the “Replicate 2-LMP1 Fold Increase” value amounted to 1.34.

On to `O=C(O)c1ccc(N2C(=O)/C(=C\c3ccc(-c4ccc([N+](=O)[O-])cc4)o3)C=C2c2ccccc2)cc1` [4E1RCat], for which the “Average LMP1 Fold Increase” value under setting [1] is on record as 0.71. Besides, under setting [2], the “Replicate 1-LMP1 Fold Increase” value is reported as 0.30 and the “Replicate 2-LMP1 Fold Increase” value is recorded as 1.12.

Turning to `C=CCNC1=C2C[C@@H](C)C[C@H](OC)[C@H](O)[C@@H](C)/C=C(\C)[C@H](OC(N)=O)[C@@H](OC)/C=C\C=C(/C)C(=O)NC(=CC1=O)C2=O` [17-AAG (Tanespimycin)], under setting [1], the “Average LMP1 Fold Increase” value came out at 0.45. Under setting [2], the “Replicate 1-LMP1 Fold Increase” value stood at 0.36 and the “Replicate 2-LMP1 Fold Increase” value amounted to 0.55.

On to `CN1CCc2cc3c(cc2[C@H]1[C@@H]1OC(=O)c2c1ccc1c2OCO1)OCO3` [(+)-Bicuculline], for which the “Average LMP1 Fold Increase” value under setting [1] was determined as 0.89. Moreover, under setting [2], the “Replicate 1-LMP1 Fold Increase” value is recorded as 0.86 and the “Replicate 2-LMP1 Fold Increase” value was determined as 0.93.

Turning to `C[C@H](Oc1cc(-c2cnn(C3CCNCC3)c2)cnc1N)c1c(Cl)ccc(F)c1Cl` [(S)-crizotinib], under setting [1], the “Average LMP1 Fold Increase” value is 0.70. Under setting [2], the “Replicate 1-LMP1 Fold Increase” value is recorded as 0.57 and the “Replicate 2-LMP1 Fold Increase” value was 0.84.

As to `C=C1C(=O)O[C@H]2[C@H]1CC/C(C)=C/CC[C@@]1(C)O[C@@H]21` [(−)-Parthenolide], the “Average LMP1 Fold Increase” value under setting [1] is 0.57. Under setting [2], the “Replicate 1-LMP1 Fold Increase” value was found to be 0.26 and the “Replicate 2-LMP1 Fold Increase” value amounted to 0.87.

As for `N#Cc1c(O)c2c(-c3ccc(-c4ccccc4O)cc3)csc2[nH]c1=O` [A-769662], the “Average LMP1 Fold Increase” value under setting [1] is given as 0.40. Under setting [2], the “Replicate 1-LMP1 Fold Increase” value is 0.41 and the “Replicate 2-LMP1 Fold Increase” value is listed as 0.39.

Take `CC1(C)CCC(CN2CCN(c3ccc(C(=O)NS(=O)(=O)c4ccc(NCC5CCOCC5)c([N+](=O)[O-])c4)c(Oc4cnc5[nH]ccc5c4)c3)CC2)=C(c2ccc(Cl)cc2)C1` [ABT-199 (GDC-0199)]: under setting [1], the “Average LMP1 Fold Increase” value is 0.75. Besides, under setting [2], the “Replicate 1-LMP1 Fold Increase” value was determined as 0.51 and the “Replicate 2-LMP1 Fold Increase” value amounted to 0.98.

In the case of `CC1(C)CCC(c2ccc(Cl)cc2)=C(CN2CCN(c3ccc(C(=O)NS(=O)(=O)c4ccc(N[C@H](CCN5CCOCC5)CSc5ccccc5)c(S(=O)(=O)C(F)(F)F)c4)cc3)CC2)C1` [ABT-263 (Navitoclax)], the “Average LMP1 Fold Increase” value under setting [1] worked out at 0.27. For the same compound, under setting [2], the “Replicate 1-LMP1 Fold Increase” value is 0.21 and the “Replicate 2-LMP1 Fold Increase” value came to 0.33.

As for `CCN(CC)C(=O)c1ccc(C2=CC3(CCNCC3)Oc3cccc(O)c32)cc1` [ADL5859 HCl], the fold induction at 2.5 µM runs as follows: under setting [3], 1.02; under setting [4], 0.54; under setting [5], 1.5.

`O=C(c1ccc(F)cc1)N1CCC[C@H](c2nc(-c3ccc(F)cc3)no2)C1` [ADX-47273]: the “Average LMP1 Fold Increase” value under setting [1] is recorded as 0.58. Besides, under setting [2], the “Replicate 1-LMP1 Fold Increase” value came out at 0.81 and the “Replicate 2-LMP1 Fold Increase” value was 0.35.

Consider `CN(C)Cc1ccc(-c2nc3cccc4c3n2CCNC4=O)cc1` [AG-14361], for which, under setting [1], the “Average LMP1 Fold Increase” value was determined as 0.30. Besides, under setting [2], the “Replicate 1-LMP1 Fold Increase” value is reported as 0.39 and the “Replicate 2-LMP1 Fold Increase” value is 0.22.

In the case of `Cc1ccccc1C(C(=O)NC1CCCCC1)N(C(=O)Cn1ccnc1C)c1cccc(F)c1` (stereo not drawn) [AGI-5198], the fold induction at 2.5 µM is, setting by setting: under setting [3], 0.82; under setting [4], 0.71; under setting [5], 0.93.

For `O=C(Nc1cccc(C(F)(F)F)c1)Nc1cc(S(=O)(=O)NC2CC2)ccc1-c1ccsc1` [AGI-6780], the fold induction at 2.5 µM reads like this: under setting [3], 1.51; under setting [4], 0.42; under setting [5], 2.6.

For `CN1CCCCC1Cn1cc(C(=O)c2cc([N+](=O)[O-])ccc2I)c2ccccc21` (stereo not drawn) [AM1241], the “Average LMP1 Fold Increase” value under setting [1] is 0.79. Further, under setting [2], the “Replicate 1-LMP1 Fold Increase” value is 1.01 and the “Replicate 2-LMP1 Fold Increase” value is 0.56.

For `CC(=O)Nc1nc2c(Oc3cc(-c4ccc(C(F)(F)F)cc4)ncn3)cccc2s1` [AMG-517], the fold induction at 2.5 µM by setting is: under setting [3], 0.52; under setting [4], 0.56; under setting [5], 0.48.

In the case of `COc1cc(N2CCC(N3CCN(C)CC3)CC2)ccc1Nc1ncc(Cl)c(Nc2ccccc2P(C)(C)=O)n1` [AP26113], the fold induction at 2.5 µM turned out to be 0.92 under setting [3], 1.07 under setting [4] and 0.77 under setting [5].

In the case of `O=C1NC(=O)/C(=C/c2ccc(-c3ccc(F)cc3O)o2)S1` [AS-252424], the “Average LMP1 Fold Increase” value under setting [1] is recorded as 0.53. Further, under setting [2], the “Replicate 1-LMP1 Fold Increase” value stood at 0.57 and the “Replicate 2-LMP1 Fold Increase” value came to 0.49.

Regarding `Cc1cc2c(C(C)C)c(O)c(O)c(C=O)c2c(O)c1-c1c(C)cc2c(C(C)C)c(O)c(O)c(C=O)c2c1O` [AT101], the fold induction at 2.5 µM is 1.04 under setting [3], 0.51 under setting [4] and 1.58 under setting [5].

With `CCNC(=O)c1noc(-c2cc(C(C)C)c(O)cc2O)c1-c1ccc(CN2CCOCC2)cc1` [AUY922 (NVP-AUY922)], the “Average LMP1 Fold Increase” value under setting [1] worked out at 1.29. Under setting [2], the “Replicate 1-LMP1 Fold Increase” value was determined as 1.62 and the “Replicate 2-LMP1 Fold Increase” value was found to be 0.96.

For the compound `C=CC(=O)Nc1cccc(Nc2nc(Nc3ccc(OCCOC)cc3)ncc2F)c1` [AVL-292], the “Average LMP1 Fold Increase” value under setting [1] is reported as 0.52. Under setting [2], the “Replicate 1-LMP1 Fold Increase” value stood at 0.48 and the “Replicate 2-LMP1 Fold Increase” value was determined as 0.56.

For `C[C@@H]1COCCN1c1cc(C2(S(C)(=O)=O)CC2)nc(-c2cccc3[nH]ccc23)n1` [AZ20], under setting [1], the “Average LMP1 Fold Increase” value is 1.39. In addition, under setting [2], the “Replicate 1-LMP1 Fold Increase” value was 1.56 and the “Replicate 2-LMP1 Fold Increase” value amounted to 1.22.

Turning to `COc1cc(N2CCN(C)CC2)ccc1Nc1nccc(-c2cn(C)c3cnccc23)n1` [AZ191], under setting [1], the “Average LMP1 Fold Increase” value is listed as 0.37. Further, under setting [2], the “Replicate 1-LMP1 Fold Increase” value turned out to be 0.50 and the “Replicate 2-LMP1 Fold Increase” value is listed as 0.24.

Regarding `COc1cc(OC2CCN(C)CC2)ccc1Nc1ncc2c(n1)n(C1CCCC1)c(=O)n2C` [AZ 3146], the “Average LMP1 Fold Increase” value under setting [1] is recorded as 0.61. Besides, under setting [2], the “Replicate 1-LMP1 Fold Increase” value is recorded as 0.66 and the “Replicate 2-LMP1 Fold Increase” value is reported as 0.57.

In the case of `CC(=O)Nc1cccc2c1c(Sc1ccc(Cl)cc1)c(C)n2CC(=O)O` [AZD1981], under setting [1], the “Average LMP1 Fold Increase” value was determined as 0.80. Moreover, under setting [2], the “Replicate 1-LMP1 Fold Increase” value is recorded as 1.13 and the “Replicate 2-LMP1 Fold Increase” value is on record as 0.46.

Turning to `COC1CCN(C(=O)c2cc(Cc3n[nH]c(=O)c4ccccc34)ccc2F)CC1` [AZD2461], under setting [1], the “Average LMP1 Fold Increase” value is 1.00. In addition, under setting [2], the “Replicate 1-LMP1 Fold Increase” value was 0.50 and the “Replicate 2-LMP1 Fold Increase” value was found to be 1.51.

On to `COc1cc(N2CCC(N)CC2)ccc1Nc1ncc(Cl)c(-c2c[nH]c3ccccc23)n1` [AZD3463], for which the “Average LMP1 Fold Increase” value under setting [1] is 0.26. Under setting [2], the “Replicate 1-LMP1 Fold Increase” value is reported as 0.28 and the “Replicate 2-LMP1 Fold Increase” value is recorded as 0.24.

`COc1cc(CCc2cc(NC(=O)c3ccc(N4CC(C)NC(C)C4)cc3)n[nH]2)cc(OC)c1` (stereo not drawn) [AZD4547]: the “Average LMP1 Fold Increase” value under setting [1] was found to be 0.13. Moreover, under setting [2], the “Replicate 1-LMP1 Fold Increase” value was 0.11 and the “Replicate 2-LMP1 Fold Increase” value is 0.15.

Turning to `Cc1cc([C@@H](C)Nc2ccccc2C(=O)O)c2nc(N3CCOCC3)cc(=O)n2c1` [AZD6482], under setting [1], the “Average LMP1 Fold Increase” value turned out to be 0.22. Also, under setting [2], the “Replicate 1-LMP1 Fold Increase” value came out at 0.06 and the “Replicate 2-LMP1 Fold Increase” value is recorded as 0.37.

As to `CN(C)C(=O)c1ccc(S(=O)(=O)c2ccc(NC(=O)[C@@](C)(O)C(F)(F)F)c(Cl)c2)cc1` [AZD7545], the “Average LMP1 Fold Increase” value under setting [1] worked out at 0.67. Also, under setting [2], the “Replicate 1-LMP1 Fold Increase” value was 0.40 and the “Replicate 2-LMP1 Fold Increase” value is 0.94.

As to `NC(=O)Nc1cc(-c2cccc(F)c2)sc1C(=O)N[C@H]1CCCNC1` [AZD7762], under setting [1], the “Average LMP1 Fold Increase” value is on record as 5.84. For the same compound, under setting [2], the “Replicate 1-LMP1 Fold Increase” value came out at 9.74 and the “Replicate 2-LMP1 Fold Increase” value was determined as 1.94.
